Laboratory results published in PubChem BioAssay AID330 (DTP/NCI, 2004).
Several values for one entry are separate records, joined by “and”; a condition that tells them apart may be missing. Identical values can stand only once. Inconclusive results and toxic doses are left out. The calls were made as follows: active = survival T/C of 150% or more; inactive = T/C below 125% in these data. Peptide text beside a SMILES is read from it. * marks the point of attachment. For = O=C*

System: P388 leukemia ip, CD2F1 mice, survival T/C
Test: NCI In Vivo Anticancer Drug Screen. Data for tumor model P388 Leukemia (intraperitoneal) in CD2F1 (CDF1) mice
Conditions: endpoint: median survival time, higher = longer survival
In short: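 Mice carrying the transplanted tumor received test compound or vehicle. Survival was recorded in each group, and the value is the treated-group measurement divided by that of the vehicle-treated control group.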

[1] = dose: 25.0 mg/kg/injection, schedule: Q01DX005 (ip), vehicle: Klucel (hydroxypropylcellulose) (HPC)
[2] = dose: 50.0 mg/kg/injection, schedule: Q01DX005 (ip), vehicle: Klucel (hydroxypropylcellulose) (HPC)
[3] = dose: 100.0 mg/kg/injection, schedule: Q01DX005 (ip), vehicle: Klucel (hydroxypropylcellulose) (HPC)
[4] = dose: 200.0 mg/kg/injection, schedule: Q01DX005 (ip), vehicle: Klucel (hydroxypropylcellulose) (HPC)
[5] = dose: 50.0 mg/kg/injection, schedule: Q01DX009 (ip), vehicle: Klucel (hydroxypropylcellulose) (HPC)
[6] = dose: 100.0 mg/kg/injection, schedule: Q01DX009 (ip), vehicle: Klucel (hydroxypropylcellulose) (HPC)
[7] = dose: 200.0 mg/kg/injection, schedule: Q01DX009 (ip), vehicle: Klucel (hydroxypropylcellulose) (HPC)
[8] = dose: 60.0 mg/kg/injection, schedule: Q01DX005 (ip), vehicle: saline with Tween-80
[9] = dose: 120.0 mg/kg/injection, schedule: Q01DX005 (ip), vehicle: saline with Tween-80
[10] = dose: 240.0 mg/kg/injection, schedule: Q01DX005 (ip), vehicle: saline with Tween-80
[11] = dose: 100.0 mg/kg/injection, schedule: Q04DX002 (ip), vehicle: saline with Tween-80
[12] = dose: 50.0 mg/kg/injection, schedule: Q01DX005 (ip), vehicle: saline with Tween-80
[13] = dose: 100.0 mg/kg/injection, schedule: Q01DX005 (ip), vehicle: saline with Tween-80
[14] = dose: 200.0 mg/kg/injection, schedule: Q01DX005 (ip), vehicle: saline with Tween-80
[15] = dose: 50.0 mg/kg/injection, schedule: Q01DX009 (ip), vehicle: saline
[16] = dose: 100.0 mg/kg/injection, schedule: Q01DX009 (ip), vehicle: saline
[17] = dose: 200.0 mg/kg/injection, schedule: Q01DX009 (ip), vehicle: saline
[18] = dose: 60.0 mg/kg/injection, schedule: Q01DX005 (ip), vehicle: Klucel (hydroxypropylcellulose) (HPC)
[19] = dose: 120.0 mg/kg/injection, schedule: Q01DX005 (ip), vehicle: Klucel (hydroxypropylcellulose) (HPC)
[20] = dose: 240.0 mg/kg/injection, schedule: Q01DX005 (ip), vehicle: Klucel (hydroxypropylcellulose) (HPC)

Measured: T/C

O=C1c2ccccc2C(=O)N1/N=[N+](\[O-])N1Cc2ccccc2C1
inactive: [1] 97 % of control | [2] 101 % of control | [3] 99 % of control | [4] 99 % of control

N#CC(=Nc1ccccc1)c1cccc(Br)c1
inactive: [5] 109 % of control | [6] 109 % of control | [7] 117 % of control

Nc1nc(CCCCc2ccccc2)c(N=Nc2ccc(Cl)cc2)c(=O)[nH]1
inactive: [8] 97 % of control | [9] 95 % of control | [10] 103 % of control

O=C(O)CNO
inactive: [5] 101 % of control | [6] 105 % of control | [7] 104 % of control | dose: 400.0 mg/kg/injection, schedule: Q01DX009 (ip), vehicle: Klucel (hydroxypropylcellulose) (HPC) 110 % of control

C/C(=N\Nc1ccc([N+](=O)[O-])cc1[N+](=O)[O-])c1ccc[nH]1
inactive: dose: 15.0 mg/kg/injection, schedule: Q01DX005 (ip), vehicle: saline with Tween-80 96 % of control | dose: 30.0 mg/kg/injection, schedule: Q01DX005 (ip), vehicle: saline with Tween-80 87 % of control | [8] 89 % of control

NC(CCP(=O)(O)O)C(=O)O (centres undefined)
inactive: dose: 50.0 mg/kg/injection, schedule: Q01DX005 (ip), vehicle: saline 107 % of control | dose: 100.0 mg/kg/injection, schedule: Q01DX005 (ip), vehicle: saline 97 % of control | [11] 100 % of control | dose: 200.0 mg/kg/injection, schedule: Q01DX005 (ip), vehicle: saline 92 % of control | dose: 200.0 mg/kg/injection, schedule: Q04DX002 (ip), vehicle: saline with Tween-80 87 % of control | dose: 400.0 mg/kg/injection, schedule: Q04DX002 (ip), vehicle: saline with Tween-80 89 % of control

O=C(CCc1n[nH]c(=S)o1)Nc1ccccc1
inactive: [12] 102 % of control | [13] 95 % of control | [14] 96 % of control

O=CNCNC=O
inactive: [15] 95 % of control | [16] 90 % of control | [17] 99 % of control

C1=C(N2CCOCC2)N(c2ccccc2)c2ccccc2N=C1N1CCCC1
inactive: dose: 12.5 mg/kg/injection, schedule: Q01DX005 (ip), vehicle: Klucel (hydroxypropylcellulose) (HPC) 100 % of control | [1] 91 % of control | [2] 103 % of control and 96 % of control

CC1(C)OC2C3CC(C2O1)C1C3C2(Cl)CC1(Cl)C(Cl)=C2Cl (centres undefined)
inactive: [12] 106 % of control | [13] 99 % of control | [14] 101 % of control

CCOc1ccc2nc3cc(N=Nc4ccc(N)nc4N)ccc3c(N)c2c1
inactive: dose: 12.5 mg/kg/injection, schedule: Q01DX005 (ip), vehicle: saline with Tween-80 106 % of control | dose: 25.0 mg/kg/injection, schedule: Q01DX005 (ip), vehicle: saline with Tween-80 113 % of control | [12] 104 % of control and 105 % of control

CN(C)c1ccc(-c2nc(-c3ccccc3)c(-c3ccccc3)[nH]2)cc1
inactive: dose: 50.0 mg/kg/injection, schedule: Q01DX009 (ip), vehicle: saline with Tween-80 104 % of control | dose: 100.0 mg/kg/injection, schedule: Q01DX009 (ip), vehicle: saline with Tween-80 100 % of control | dose: 200.0 mg/kg/injection, schedule: Q01DX009 (ip), vehicle: saline with Tween-80 104 % of control | dose: 400.0 mg/kg/injection, schedule: Q01DX009 (ip), vehicle: saline with Tween-80 106 % of control

CNc1nc(-c2ccc(OC)cc2)c(-c2ccc(OC)cc2)[nH]1
inactive: dose: 25.0 mg/kg/injection, schedule: Q04DX002 (ip), vehicle: saline with Tween-80 108 % of control and 111 % of control | dose: 50.0 mg/kg/injection, schedule: Q04DX002 (ip), vehicle: saline with Tween-80 107 % of control | [11] 99 % of control

N=C(N)Cc1ccc(NC(=O)c2ccc(C(=O)Nc3ccc(CC(=N)N)cc3)cc2)cc1
inactive: dose: 9.37 mg/kg/injection, schedule: Q01DX001 (ip), vehicle: saline with Tween-80 120 % of control | dose: 18.75 mg/kg/injection, schedule: Q01DX001 (ip), vehicle: saline with Tween-80 120 % of control | dose: 37.5 mg/kg/injection, schedule: Q01DX001 (ip), vehicle: saline with Tween-80 115 % of control

CC(C)(C)[Si](C)(C)O[C@H]1C=C(S(=O)(=O)c2ccccc2)[C@H](O)C1
inactive: [18] 100 % of control | [19] 102 % of control | [20] 100 % of control

O=[N+]([O-])c1ccc(Sc2nc3ccccc3[nH]2)nc1
inactive: dose: 50.0 mg/kg/injection, schedule: Q01DX009 (ip), vehicle: suspension in saline 100 % of control | dose: 100.0 mg/kg/injection, schedule: Q01DX009 (ip), vehicle: suspension in saline 100 % of control | dose: 200.0 mg/kg/injection, schedule: Q01DX009 (ip), vehicle: suspension in saline 99 % of control

O=NNc1ccncc1
inactive: dose: 6.25 mg/kg/injection, schedule: Q01DX005 (ip), vehicle: saline 109 % of control | dose: 12.5 mg/kg/injection, schedule: Q01DX005 (ip), vehicle: saline 122 % of control | dose: 25.0 mg/kg/injection, schedule: Q01DX005 (ip), vehicle: saline 120 % of control

CCOC(=O)Nc1cc(Cl)c2[nH]cnc2n1
inactive: [2] 97 % of control | [3] 101 % of control | [4] 108 % of control

ONc1cnc2ccccc2n1
inactive: [2] 103 % of control | [3] 100 % of control | [4] 100 % of control

CC(C)(C)OP(=O)(NN)OC(C)(C)C
inactive: [15] 101 % of control | [16] 108 % of control | [17] 99 % of control

Cc1cc2c(=O)cc(-c3ccccc3)oc2c(C#N)c1C
inactive: [18] 99 % of control | [19] 94 % of control | [20] 93 % of control

CC1(C)OC2OC(C3COC(=S)O3)C(O)C2O1 (centres undefined)
inactive: [2] 98 % of control | [3] 99 % of control | [4] 103 % of control

O=C(CCN1C(=O)c2ccccc2C1=O)Nc1c(I)cc(I)c(C(=O)O)c1I
inactive: [8] 104 % of control | [9] 106 % of control | [10] 101 % of control

CCCOC1(C)CC(c2cc(OC)c(OC)c(OC)c2)c2cc3c(cc2O1)OCO3 (centres undefined)
inactive: [18] 93 % of control | [19] 91 % of control | [20] 91 % of control

CSCCC(NC(=O)C(Cc1ccccc1)NC=O)C(=O)O (stereo not drawn) (For-Phe-Met-OH; configuration not given here)
inactive: [12] 108 % of control | [13] 103 % of control | [14] 104 % of control

COc1ccc2nonc2c1
inactive: dose: 100.0 mg/kg/injection, schedule: Q01DX001 (ip), vehicle: saline 103 % of control | dose: 200.0 mg/kg/injection, schedule: Q01DX001 (ip), vehicle: saline 103 % of control | dose: 400.0 mg/kg/injection, schedule: Q01DX001 (ip), vehicle: saline 105 % of control
